By logP is commonly meant a log measure of how a compound divides between an organic and an aqueous phase.

These results are taken from ChEMBL document CHEMBL3046150, “Quantitative Structure-Activity Relationships of Herbicidal N-Alkyl-N-(4-substituted benzyl)-4-chloro-2-pentenamides against Echinochloa oryzicola” (J Pestic Sci, 1999).

The structures appear in SMILES notation.

The nature of the series: Lipophilicity, log P of the compound. It is filed as physicochemical. The conditions noted are these: octanol/water.

Regarding `CC(Cl)/C=C/C(=O)N(Cc1ccc(Cl)cc1)CC(C)C` (configuration not stated), under “read-out: logP”, the logP worked out at 4.68.
For `CC(C)Oc1cc(-n2nc(C(C)(C)C)oc2=O)c(Cl)cc1Cl` [OXADIAZON], the logP worked out at 4.78.
